Measurements from patent US11913944B2, “Photoaffinity probes” (Promega Corporation, priority 2019, dated 2024).

Assays:
[1] = Influence of UV irradiation on fluorescence intensity of SAHA-fluorophore conjugates; assay type: physicochemical; details: UV irradiated 0-30 minutes; HEK293T cells expressing HDAC6-NANOLUC fusion
Description: During development of the BRET approach described herein for estimating crosslinking efficiency, experiments were conducted to determine the influence of UV irradiation on the bioluminescent intensity of the energy donor NANOLUC, and the fluorescence intensity of three fluorophores that can be used as energy acceptors (FIGS. 12-15). The model system for these experiments (FIG. 13) was the interaction between HDAC6 fused to NANOLUC and SAHA (vorinostat), which binds to HDAC6 and was conjugated to one of three fluorophores NCT, TAMRA, and BODIPY576 (FIG. 12). In these experiments HEK293T cells transiently expressing HAD6-NANOLUC fusion were treated for 2 hours with serial dilution of SAHA-fluorophore conjugate, then UV irradiated for 0-30 minutes and subsequently treated with NANOGLO detection reagent. […] Thus, NANOLUC and NCT were chosen as a BRET donor and acceptor pair for the assays estimating photocrosslinking efficiency.

STAT5 reporter = STAT5 reporter expression in K-562 cells; assay type: cell-based; details: Homo sapiens, K562; K-562 cells transiently expressing a STAT5 reporter, 24 hours; read-out: IC50, inhibited expression of a STAT5 reporter
Description: Dasatinib is a broad kinase inhibitor targeting the BCR-ABL oncogenic pathway, thereby reducing the downstream activation of STAT5. K-562 cells transiently expressing a STAT5 reporter (2×10^5 cells/mL) were treated with serial dilution of dasatinib or a derivative having cleavable chloroalkane tag (+/−a PRG) for 24 hours and then tested for expression of the STAT5 reporter.

Row | SMILES | Fluorescence intensity under UV irradiation [1] | IC50 (STAT5 reporter) [nM]
1 | O=C(CCCCCCC(=O)Nc1ccc(CNC(=O)CCc2ccc3n2[B-](F)(F)[N+]2=C(c4ccc[nH]4)C=CC2=C3)cc1)NO [SAHA-BODIPY576] | decreased the fluorescence intensity | 
2 | O=C(CCCCCCC(=O)Nc1ccc(CNC(=O)c2ccc(C(=O)O)c(C3=c4cc5c6c(c4Oc4c3cc3c7c4CCCN7CCCC3)CCC[N+]=6CCCC5)c2)cc1)NO [SAHA-NCT] | not significantly affected | 
3 | CN(C)c1ccc2c(-c3cc(C(=O)NCc4ccc(NC(=O)CCCCCCC(=O)NO)cc4)ccc3C(=O)O)c3ccc(=[N+](C)C)cc-3oc2c1 [SAHA-TMR] | decreased the fluorescence intensity | 
4 | Cc1nc(Nc2ncc(C(=O)Nc3c(C)cccc3Cl)s2)cc(N2CCN(CCO)CC2)n1 [dasatinib] |  | 0.4
